Measurements taken from patent US20230213520A1, “IN VITRO METHOD FOR THE PROGNOSIS OF DISEASE PROGRESSION IN A PATIENT THAT SUFFERS FROM OR IS AT RISK OF DEVELOPING A SOLID TUMOR” (Bergonié Institute, priority 2020, published 2023).
Values joined by “and” are separate entries in the source; they are usually repeats but may differ in a detail not shown here. Equal entries are not always repeated.

Tests used:
[1] = REGOMUNE phase II study: safety (adverse events, CTCAE v5.0); set-up: species or system human; details: in vivo
Experimental: After an assessment of eligibility, patients received Regorafenib 160 mg per day on a three weeks on/one week off schedule, in cycles of 28 days. Avelumab treatment began on Day 15 cycle 1, by intravenous infusion once every 2 weeks. Treatment was continued until disease progression, unacceptable toxicity, investigator's decision to discontinue, or withdrawal of patient consent. Participants were monitored for adverse events at every follow-up assessment. Adverse events were graded according to National Cancer Institute Common Terminology Criteria for Adverse Events version 5.0. Laboratory assessments were done at baseline, and every 2 weeks afterwards until treatment discontinuation. Regorafenib dose modifications to manage adverse events were allowed (see study protocol). The dose of Regorafenib could be reduced to 120 mg and then to 80 mg. […] Tumor lesions were assessed according to RECIST version 1.1 at baseline (within 4 weeks prior to Cycle 1 Day 1), and every 8 weeks until disease progression or the start of another treatment. […]
All enrolled patients who initiated the study treatment were included in the safety analysis. […] The median follow-up was calculated using the reverse Kaplan-Meier method. […] Quantitative variables were described using the median and range, and qualitative variables were described using frequency, percentage and 95% confidence interval (binomial law). […]

[2] = tested on: metastatic colorectal cancer; details: cited from earlier work
[3] = tested on: immunosuppressive macrophage infiltration; details: preclinical model of metastatic colorectal cancer; cited from earlier work
[4] = Regorafenib single agent in addition to supportive care, pivotal study

Compound	Patients with dose reduction or temporary treatment discontinuation because of a drug-related adverse event ([1]; human) [patients]	Patients with grade 3 or 4 treatment-related adverse events that needed some dose reduction ([2]; CORRECT (as well as CONCUR) study, single agent)	Median overall survival [2, 4] [months]	Median progression-free survival [2, 4]	Objective response rate ([2]; pivotal randomized study) [%]	Effect on immunosuppressive macrophage infiltration [3]	Patients with dose reduction or temporary treatment discontinuation because of a drug-related adverse event [1] [patients]
CNC(=O)c1cc(Oc2ccc(NC(=O)Nc3ccc(Cl)c(C(F)(F)F)c3)c(F)c2)ccn1 [Regorafenib]	41	up to 54%	6.4	1.9 months and 2 months	1	reduce immunosuppressive macrophage infiltration	
Avelumab							17
